Read-outs that look alike come from different tables or passages of the source.
Key:
Assay type in all cases: in vivo
Lolium perenne (LOLPE) = assay: Test 2 glasshouse assay (IF50 formulation, X-77), pre-emergence herbicidal activity; conditions: 480 h, 20DAA, read-out: Percentage phytotoxicity LOLPE
Description: (§1) Seeds of a variety of monocotyledonous and dicotyledonous test plants are sown in standard soil in pots. The plants are cultivated for one day (for pre-emergence) or for about 12 days (for post-emergence) under controlled conditions in a glasshouse (warm climate species at 24/18° C., cool climate species at 20/16° C., both at day/night; 16 hours light; 65% humidity).
(§2) An “instant formulation”, known as the “IF50”, containing 50 g/liter (i.e. 5% w/v) of the “technical” (i.e. unformulated) active ingredient is prepared by dissolving the active ingredient in a mixture of organic solvents and emulsifier, details of which are provided in the Table below. This IF50 is then mixed with a small, variable amount of acetone to aid dissolution, before addition of a 0.2% v/v aqueous solution of the adjuvant X-77 (which is a mixture of alkyl aryl polyoxyethylene glycols and free fatty acids in isopropanol, CAS Registry number 11097-66-8), as the aqueous diluent, to form an aqueous spray solution which contains a predetermined concentration of the active ingredient (which varies depending on the application rate of the active ingredient to the plants) and 0.2% v/v of the adjuvant X-77. This aqueous spray solution is then sprayed onto the plants, after one day's cultivation (for pre-emergence), or after about 12 days' cultivation (range=10-13 days) (for post-emergence).
(§3) The test plants are then grown on, in a glasshouse (greenhouse) under controlled conditions (warm climate species at 24/18° C., cool climate species at 20/16° C., both at day/night; 16 hours light; 65% humidity) and are watered twice daily. 15 days after application of the test herbicide (15DAA) (for post-emergence), and 20 days after application of the test herbicide (20DAA) (for pre-emergence), the test plants are evaluated visually, and an assessed percentage phytotoxicity score is given for each herbicidal application on each plant species (with 100%=total damage to plant; 0%=no damage to plant).
Cool climate (“cool season”) grassy monocotyledonous weeds: Alopecurus myosuroides (ALOMY), Avena fatua (AVEFA), Lolium perenne (LOLPE).

[1] = tested on: Amaranthus retroflexus (AMARE); assay: Test 1 glasshouse assay, pre-emergence herbicidal activity; conditions: 312 h, visual evaluation after 13 days, read-out: Percentage phytotoxicity AMARE
Outline: (§4)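 Pre-emergence: test species sown in soil and sprayed one day after sowing with active ingredient in acetone/water (50:50) with 0.5% Tween 20. Grown at 24/16 °C day/night, 14 h light, 65% humidity; visual phytotoxicity scored after 13 days (0% no damage, 100% total damage).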

Setaria faberi (SETFA) = assay: as above; conditions: 312 h, visual evaluation after 13 days, read-out: Percentage phytotoxicity SETFA
Outline: as §4

[2] = tested on: Alopecurus myosuroides (ALOMY); assay: as above; conditions: 312 h, visual evaluation after 13 days, read-out: Percentage phytotoxicity ALOMY
Outline: as §4

[3] = tested on: Brassica napus (BRSNN, rape); assay: Test 2 glasshouse assay (IF50 formulation, X-77), post-emergence herbicidal activity; conditions: 360 h, 15 DAA, visual score, read-out: Post-emergence herbicidal activity (percentage phytotoxicity) BRSNN; for plant injury at 30 g/ha: application rate 30 g/ha; for plant injury at 125 g/ha: application rate 125 g/ha; for plant injury at 250 g/ha: application rate 250 g/ha
Description: as §1, §2, §3
(§5) Cool climate crop plants: Triticum aestivum (TRZAW, winter wheat), Brassica napus (BRSNN, rape, also called oilseed rape or rapeseed), Beta vulgaris (BEAVA, sugarbeet). Warm climate crop plants: Glycine max (GLXMA, soybean).

[4] = tested on: Glycine max (GLXMA, soybean); assay: as above; conditions: 360 h, 15 DAA, visual score, read-out: Post-emergence herbicidal activity (percentage phytotoxicity) GLXMA; for plant injury at 30 g/ha: application rate 30 g/ha; for plant injury at 125 g/ha: application rate 125 g/ha; for plant injury at 250 g/ha: application rate 250 g/ha
Description: as §1, §2, §3, §5

[5] = tested on: Beta vulgaris (BEAVA, sugarbeet); assay: as above; conditions: 360 h, 15 DAA, visual score, read-out: Post-emergence herbicidal activity (percentage phytotoxicity) BEAVA; for plant injury at 30 g/ha: application rate 30 g/ha; for plant injury at 125 g/ha: application rate 125 g/ha; for plant injury at 250 g/ha: application rate 250 g/ha
Description: as §1, §2, §3, §5

[6] = tested on: Triticum aestivum (TRZAW, winter wheat); assay: as above; conditions: 360 h, 15 DAA, visual score, read-out: Post-emergence herbicidal activity (percentage phytotoxicity) TRZAW; for plant injury at 30 g/ha: application rate 30 g/ha; for plant injury at 125 g/ha: application rate 125 g/ha; for plant injury at 250 g/ha: application rate 250 g/ha
Description: as §1, §2, §3, §5

[7] = tested on: Echinochloa crus-galli (ECHCG); assay: Test 1 glasshouse assay, post-emergence herbicidal activity; conditions: 312 h, after 13 days, read-out: Percentage phytotoxicity ECHCG
Outline: (§6)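 Plants sprayed 8 days after sowing with active ingredient in acetone/water (50:50) containing 0.5% Tween 20, grown in glasshouse at 24/16°C day/night, 14 h light, 65% humidity. Phytotoxicity scored visually after 13 days as percentage damage (100% = total damage; 0% = none).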

[8] = tested on: Alopecurus myosuroides (ALOMY); assay: as above; conditions: 312 h, after 13 days, read-out: Percentage phytotoxicity ALOMY
Outline: as §6

[9] = tested on: Zea mays (ZEAMX, corn/maize); assay: Test 1 glasshouse assay, pre-emergence herbicidal activity; conditions: 312 h, visual evaluation after 13 days, read-out: Percentage phytotoxicity ZEAMX
Outline: as §4

[10] = tested on: Abutilon theophrasti (ABUTH); assay: as above; conditions: 312 h, visual evaluation after 13 days, read-out: Percentage phytotoxicity ABUTH
Outline: as §4

[11] = post-emergence (Example 1B Table 1)
[12] = post-emergence (Example 1B Table 2)

## C#CCC1CC(=O)C(c2c(C)cc(-c3ccc(F)cc3)cc2C)C1=O (stereo not drawn) [Compound A1, 2-[4-(4-fluorophenyl)-2,6-dimethyl-phenyl]-4-prop-2-ynylcyclopentane-1,3-dione]
Lolium perenne (LOLPE)
  pest or weed control at 125 g/ha: 80%
[1]
  pest or weed control at 250 g/ha: 80%
Setaria faberi (SETFA)
  pest or weed control at 250 g/ha: 90%
[2]
  pest or weed control at 250 g/ha: 100%
[3]
  plant injury at 30 g/ha: 70%
  plant injury at 125 g/ha: 70%
[4]
  plant injury at 30 g/ha: 0%
  plant injury at 125 g/ha: 0%
[5]
  plant injury at 30 g/ha: 70%
  plant injury at 125 g/ha: 70%
[6]
  plant injury at 30 g/ha: 80%
  plant injury at 125 g/ha: 80%
[7]; [11]
  pest or weed control at 62.5 g/ha: 100%
  pest or weed control at 250 g/ha: 100%
[8]; [11]
  pest or weed control at 62.5 g/ha: 90%
  pest or weed control at 250 g/ha: 100%

## C#CCC1CC(=O)C(c2c(C)cc(-c3ccc(Cl)cn3)cc2C)C1=O (stereo not drawn) [Compound A2]
Lolium perenne (LOLPE)
  pest or weed control at 250 g/ha: 80%
[9]
  pest or weed control at 250 g/ha: 100%
[10]
  pest or weed control at 250 g/ha: 50%
[1]
  pest or weed control at 250 g/ha: 90%
Setaria faberi (SETFA)
  pest or weed control at 250 g/ha: 100%
[2]
  pest or weed control at 250 g/ha: 90%
[3]
  plant injury at 30 g/ha: 50%
  plant injury at 250 g/ha: 80%
[4]
  plant injury at 30 g/ha: 10%
  plant injury at 250 g/ha: 20%
[5]
  plant injury at 30 g/ha: 40%
  plant injury at 250 g/ha: 50%
[6]
  plant injury at 30 g/ha: 70%
  plant injury at 250 g/ha: 90%
[7]; [11]
  pest or weed control at 62.5 g/ha: 100%
  pest or weed control at 250 g/ha: 100%
[7]; [12]
  pest or weed control at 62.5 g/ha: 90%
  pest or weed control at 250 g/ha: 100%
[8]; [11]
  pest or weed control at 62.5 g/ha: 90%
  pest or weed control at 250 g/ha: 90%
[8]; [12]
  pest or weed control at 62.5 g/ha: 70%
  pest or weed control at 250 g/ha: 100%

## C#CCC1CC(=O)C(c2c(C)cc(-c3ncc(Cl)cc3F)cc2C)C1=O (stereo not drawn) [Compound A3]
Lolium perenne (LOLPE)
  pest or weed control at 250 g/ha: 80%
[9]
  pest or weed control at 250 g/ha: 100%
[10]
  pest or weed control at 250 g/ha: 20%
[1]
  pest or weed control at 250 g/ha: 60%
Setaria faberi (SETFA)
  pest or weed control at 250 g/ha: 100%
[2]
  pest or weed control at 250 g/ha: 100%
[3]
  plant injury at 30 g/ha: 40%
  plant injury at 250 g/ha: 70%
[4]
  plant injury at 30 g/ha: 20%
  plant injury at 250 g/ha: 70%
[5]
  plant injury at 30 g/ha: 40%
  plant injury at 250 g/ha: 70%
[6]
  plant injury at 30 g/ha: 80%
  plant injury at 250 g/ha: 90%
[7]; [11]
  pest or weed control at 62.5 g/ha: 100%
  pest or weed control at 250 g/ha: 100%
[7]; [12]
  pest or weed control at 62.5 g/ha: 100%
  pest or weed control at 250 g/ha: 100%
[8]; [11]
  pest or weed control at 62.5 g/ha: 100%
  pest or weed control at 250 g/ha: 100%
[8]; [12]
  pest or weed control at 62.5 g/ha: 100%
  pest or weed control at 250 g/ha: 100%

## C#CCC1CC(=O)C(c2c(F)cc(-c3ccc(Cl)cc3)cc2Cl)C1=O (stereo not drawn) [Compound A6, 2-[2-chloro-4-(4-chlorophenyl)-6-fluorophenyl]-4-prop-2-ynylcyclopentane-1,3-dione]
Lolium perenne (LOLPE)
  pest or weed control at 250 g/ha: 30%
[9]
  pest or weed control at 250 g/ha: 90%
[10]
  pest or weed control at 250 g/ha: 40%
[1]
  pest or weed control at 250 g/ha: 90%
Setaria faberi (SETFA)
  pest or weed control at 250 g/ha: 100%
[2]
  pest or weed control at 250 g/ha: 90%
[3]
  plant injury at 125 g/ha: 20%
  plant injury at 250 g/ha: 40%
[4]
  plant injury at 125 g/ha: 10%
  plant injury at 250 g/ha: 10%
[5]
  plant injury at 125 g/ha: 20%
  plant injury at 250 g/ha: 40%
[6]
  plant injury at 125 g/ha: 80%
  plant injury at 250 g/ha: 90%
[7]; [11]
  pest or weed control at 30 g/ha: 100%
  pest or weed control at 250 g/ha: 100%
[7]; [12]
  pest or weed control at 250 g/ha: 100%
[8]; [11]
  pest or weed control at 30 g/ha: 80%
  pest or weed control at 250 g/ha: 100%
[8]; [12]
  pest or weed control at 250 g/ha: 100%

## C#CCC1CC(=O)C(c2c(Cl)cc(-c3ccc(F)cc3)cc2OC)C1=O (stereo not drawn) [Compound A7]
Lolium perenne (LOLPE)
  pest or weed control at 250 g/ha: 60%
[9]
  pest or weed control at 250 g/ha: 100%
[10]
  pest or weed control at 250 g/ha: 0%
[1]
  pest or weed control at 250 g/ha: 70%
Setaria faberi (SETFA)
  pest or weed control at 250 g/ha: 100%
[2]
  pest or weed control at 250 g/ha: 90%
[3]
  plant injury at 30 g/ha: 60%
  plant injury at 250 g/ha: 80%
[4]
  plant injury at 30 g/ha: 0%
  plant injury at 250 g/ha: 20%
[5]
  plant injury at 30 g/ha: 20%
  plant injury at 250 g/ha: 70%
[6]
  plant injury at 30 g/ha: 50%
  plant injury at 250 g/ha: 90%
[7]; [11]
  pest or weed control at 30 g/ha: 100%
  pest or weed control at 250 g/ha: 100%
[8]; [11]
  pest or weed control at 30 g/ha: 70%
  pest or weed control at 250 g/ha: 100%

## C#CCC1CC(OC(C)=O)=C(c2c(C)cc(-c3ccc(F)cc3)cc2C)C1=O (stereo not drawn) [Compound A45]
Lolium perenne (LOLPE)
  pest or weed control at 125 g/ha: 90%
[1]
  pest or weed control at 250 g/ha: 90%
Setaria faberi (SETFA)
  pest or weed control at 250 g/ha: 60%
[2]
  pest or weed control at 250 g/ha: 100%
[3]
  plant injury at 30 g/ha: 50%
  plant injury at 125 g/ha: 80%
[4]
  plant injury at 30 g/ha: 0%
  plant injury at 125 g/ha: 10%
[5]
  plant injury at 30 g/ha: 70%
  plant injury at 125 g/ha: 70%
[6]
  plant injury at 30 g/ha: 80%
  plant injury at 125 g/ha: 80%
[7]; [11]
  pest or weed control at 62.5 g/ha: 100%
  pest or weed control at 250 g/ha: 100%
[8]; [11]
  pest or weed control at 62.5 g/ha: 90%
  pest or weed control at 250 g/ha: 100%

Source: patent US10375956B2, “Herbicidally active 2-(substituted-phenyl)-cyclopentane-1,3-dione compounds and derivatives thereof” (Syngenta Limited, priority 2013, dated 2019)
